# Test results: ChEMBL document CHEMBL3638639, “Chemical compounds” (2015)
# Biological target: T1, Solute carrier family 22 member 12 (Homo sapiens, UniProt Q96S37)
# T1 sequence (Q96S37 whole entry): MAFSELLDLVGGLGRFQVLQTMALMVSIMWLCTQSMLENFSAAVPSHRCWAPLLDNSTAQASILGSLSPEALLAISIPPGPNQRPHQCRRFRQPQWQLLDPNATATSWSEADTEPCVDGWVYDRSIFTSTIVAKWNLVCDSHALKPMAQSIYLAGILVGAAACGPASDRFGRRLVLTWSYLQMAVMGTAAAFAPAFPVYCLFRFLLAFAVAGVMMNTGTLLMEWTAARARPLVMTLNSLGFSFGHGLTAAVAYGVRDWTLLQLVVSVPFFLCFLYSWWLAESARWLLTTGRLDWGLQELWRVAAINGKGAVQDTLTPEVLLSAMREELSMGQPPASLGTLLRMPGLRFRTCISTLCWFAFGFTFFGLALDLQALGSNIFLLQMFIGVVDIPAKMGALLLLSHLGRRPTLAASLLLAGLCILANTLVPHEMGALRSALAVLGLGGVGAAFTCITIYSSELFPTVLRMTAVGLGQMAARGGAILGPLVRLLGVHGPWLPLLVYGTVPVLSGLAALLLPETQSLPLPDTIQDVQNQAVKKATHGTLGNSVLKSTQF
# Experiment: [14C]-Uric Uric acid working stock was made by addition of radiolabeled compound to a final concentration of 120 nM in chloride-free buffer. In all wells, the final assay concentration of solvent (DMSO) was 0.25%; the final assay concentration of [14C]-uric acid was 30 nM in chloride-free buffer and the final compound of formula (I) concentrations ranged from 0 to 10 uM.
row,SMILES,IC50 [nM]
1,N#Cc1ccccc1Oc1ccc(S(=O)(=O)Nc2ccc(F)cn2)cc1C#N,495
2,Cc1ccc(Cl)c(Oc2ccc(S(=O)(=O)Nc3ccc(F)cn3)cc2C#N)c1,196
3,N#Cc1cc(S(=O)(=O)Nc2ccc(F)cn2)ccc1Oc1cnc(N2CCC2)c(Cl)c1,1000
4,CNc1ncc(Oc2ccc(S(=O)(=O)Nc3ccc(F)cn3)cc2C#N)cc1Cl,258
5,CN(C)c1ncc(Oc2ccc(S(=O)(=O)Nc3ccc(F)cn3)cc2C#N)cc1Cl,472

# Now those with a lower IC50, led by results:
row,IC50 [nM],SMILES
1,47,N#Cc1ccc(Oc2ccc(S(=O)(=O)Nc3ccc(F)cn3)cc2C#N)c(F)c1
2,84,N#Cc1cc(S(=O)(=O)Nc2ccc(F)cn2)ccc1Oc1ccc(Cl)cc1Cl
3,117,Cc1ccc(F)c(Oc2ccc(S(=O)(=O)Nc3ccc(F)cn3)cc2C#N)c1
4,87,N#Cc1cc(S(=O)(=O)Nc2ccc(F)cn2)ccc1Oc1cnc(N)c(Cl)c1
